Assay results: paper PMC10177727 (Clinical Drug Investigation, 2023)
Where two headings read alike, the source gives them in different places.

What was measured:
[1] = Safety and tolerability: treatment-emergent adverse events; assay type: in vivo, healthy Japanese adult participants
CYP3A [2] = conditions: midazolam with ensitrelvir 375/125 mg / midazolam alone, Day 5/Day -2
CYP3A [3] = conditions: with ensitrelvir 750/250 mg; cited from earlier work
CYP3A [4] = test: clinical; conditions: human, in vivo, po, 2 mg, midazolam 2 mg alone, Day -2
CYP3A [5] = biological target: CYP3A (Homo sapiens, UniProt P08684); conditions: pre-clinical in vitro findings
CYP3A (Homo sapiens, UniProt P08684), sequence (P08684 2-503): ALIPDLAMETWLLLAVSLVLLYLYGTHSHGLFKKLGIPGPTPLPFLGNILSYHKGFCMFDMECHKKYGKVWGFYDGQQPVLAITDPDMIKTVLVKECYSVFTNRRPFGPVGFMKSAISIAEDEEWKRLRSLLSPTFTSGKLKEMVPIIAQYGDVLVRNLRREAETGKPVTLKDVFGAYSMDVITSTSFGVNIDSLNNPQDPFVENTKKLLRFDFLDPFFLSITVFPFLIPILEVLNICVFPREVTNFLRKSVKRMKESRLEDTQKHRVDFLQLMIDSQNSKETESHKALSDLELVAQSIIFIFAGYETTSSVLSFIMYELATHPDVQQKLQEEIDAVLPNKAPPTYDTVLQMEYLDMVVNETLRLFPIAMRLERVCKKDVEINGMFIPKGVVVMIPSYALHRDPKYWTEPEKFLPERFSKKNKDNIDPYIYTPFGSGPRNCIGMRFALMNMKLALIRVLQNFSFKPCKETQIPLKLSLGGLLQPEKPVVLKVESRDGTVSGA

[6] = ensitrelvir; cited from earlier work
CYP3A [7] = system: CYP3A
CYP3A [8] = conditions: with itraconazole, prednisolone 20 mg administered on Day 5; cited from earlier work
CYP3A [9] = test: clinical; conditions: human, in vivo, po, 10 mg; for half-life: t1/2,z GLS mean
[10] = midazolam cohort (ensitrelvir 375/125 mg + midazolam 2 mg), N = 14
[11] = Ensitrelvir 375/125 mg + midazolam, N = 14
[12] = Ensitrelvir 375/125 mg + midazolam, N = 14, listed as ensitrelvir
[13] = Ensitrelvir 750/250 mg + dexamethasone, N = 14
[14] = Ensitrelvir 750/250 mg + dexamethasone, N = 14, listed as ensitrelvir
[15] = Ensitrelvir 750/250 mg + prednisolone, N = 14
[16] = 5th day after the last ensitrelvir dose / prednisolone alone, Day 9/Day -2
[17] = 10th day after the last ensitrelvir dose / prednisolone alone, Day 14/Day -2
[18] = prednisolone with ensitrelvir 750/250 mg / prednisolone alone, Day 5/Day -2

Cc1ncc2n1-c1ccc(Cl)cc1C(c1ccccc1F)=NC2 [Midazolam]
Diarrhea, events related to midazolam [1, 10]: 1 | Somnolence, events related to midazolam [1, 10]: 8 | AUC0–inf GLS mean ratio (90% CI) (CYP3A [2]): 6.7685 (6.1572–7.4404) | AUC0–last GLS mean ratio (90% CI) (CYP3A [2]): 6.9011 (6.2722–7.5931) | Cmax GLS mean ratio (90% CI) (CYP3A [2]): 2.8012 (2.3798–3.2971) | MRT GLS mean ratio (90% CI) (CYP3A [2]): 2.6506 (2.4623–2.8532) | t1/2,z GLS mean ratio (90% CI) (CYP3A [2]): 2.2750 (2.0373–2.5406) | λz GLS mean ratio (90% CI) (CYP3A [2]): 0.4396 (0.3936–0.4909) | increase in the plasma exposure of midazolam (CYP3A [3]): 8.80 fold | increased ratio of Cmax of midazolam (CYP3A [3]): 2.78 fold | AUC(0-inf) (CYP3A [4]; AUC0–inf GLS mean): 0.0241 µg·h/mL | AUC(0-t) (CYP3A [4]; AUC0–last GLS mean): 0.0234 µg·h/mL | Cmax (CYP3A [4]; Cmax GLS mean): 0.0126 µg/mL | MRT (CYP3A [4]; MRT GLS mean): 3.18 h | half-life (CYP3A [4]; t1/2,z GLS mean): 3.24 h | k el (CYP3A [4]; λz GLS mean): 5.94e-05 s⁻¹

Cn1cnc(Cn2c(=O)[nH]/c(=N\c3cc4cn(C)nc4cc3Cl)n(Cc3cc(F)c(F)cc3F)c2=O)n1 [Ensitrelvir, Ensitrelvir fumaric acid]
Arthropod sting, Events [1, 11]: 1 | Arthropod sting, N (%) [1, 11]: 1 (7.1) | Blood triglycerides increased, Events [1, 11]: 1 | Blood triglycerides increased, N (%) [1, 11]: 1 (7.1) | Blood triglycerides increased, events Related to ensitrelvir [1, 11]: 1 | Diarrhea, Events [1, 11]: 1 | Diarrhea, N (%) [1, 11]: 1 (7.1) | Gastrointestinal disorders, Events [1, 11]: 1 | Gastrointestinal disorders, N (%) [1, 11]: 1 (7.1) | High-density lipoprotein decreased, Events [1, 11]: 8 | High-density lipoprotein decreased, N (%) [1, 11]: 8 (57.1) | High-density lipoprotein decreased, events Related to ensitrelvir [1, 11]: 8 | Injury, poisoning and procedural complications, Events [1, 11]: 1 | Injury, poisoning and procedural complications, N (%) [1, 11]: 1 (7.1) | Investigations, Events [1, 11]: 9 | Investigations, N (%) [1, 11]: 8 (57.1) | Investigations, events Related to ensitrelvir [1, 11]: 9 | Nervous system disorders, Events [1, 11]: 10 | Nervous system disorders, N (%) [1, 11]: 9 (64.3) | Nervous system disorders, events Related to ensitrelvir [1, 11]: 2 | Participants with any TEAE, Events [1, 11]: 21 | Participants with any TEAE, N (%) [1, 11]: 11 (78.6) | Participants with any TEAE, events Related to ensitrelvir [1, 11]: 11 | Somnolence, Events [1, 11]: 10 | Somnolence, N (%) [1, 11]: 9 (64.3) | Somnolence, events Related to ensitrelvir [1, 11]: 2 | Arthropod sting, N (%) [1, 12]: 1 | Blood triglycerides increased, N (%) [1, 12]: 1 | Diarrhea, N (%) [1, 12]: 1 | High-density lipoprotein decreased, N (%) [1, 12]: 8 | Participants with any TEAE, N (%) [1, 12]: 11 | Somnolence, N (%) [1, 12]: 9 | Atrioventricular block, Events [1, 13]: 1 | Atrioventricular block, N (%) [1, 13]: 1 (7.1) | Blood triglycerides increased, Events [1, 13]: 4 | Blood triglycerides increased, N (%) [1, 13]: 4 (28.6) | Blood triglycerides increased, events Related to ensitrelvir [1, 13]: 3 | Cardiac disorders, Events [1, 13]: 1 | Cardiac disorders, N (%) [1, 13]: 1 (7.1) | Dizziness, Events [1, 13]: 1 | Dizziness, N (%) [1, 13]: 1 (7.1) | Dizziness, events Related to ensitrelvir [1, 13]: 1 | Headache, Events [1, 13]: 1 | Headache, N (%) [1, 13]: 1 (7.1) | Headache, events Related to ensitrelvir [1, 13]: 1 | High-density lipoprotein decreased, Events [1, 13]: 5 | High-density lipoprotein decreased, N (%) [1, 13]: 5 (35.7) | High-density lipoprotein decreased, events Related to ensitrelvir [1, 13]: 5 | Investigations, Events [1, 13]: 9 | Investigations, N (%) [1, 13]: 7 (50.0) | Investigations, events Related to ensitrelvir [1, 13]: 8 | Nervous system disorders, Events [1, 13]: 2 | Nervous system disorders, N (%) [1, 13]: 1 (7.1) | Nervous system disorders, events Related to ensitrelvir [1, 13]: 2 | Papule, Events [1, 13]: 1 | Papule, N (%) [1, 13]: 1 (7.1) | Papule, events Related to ensitrelvir [1, 13]: 1 | Participants with any TEAE, Events [1, 13]: 13 | Participants with any TEAE, N (%) [1, 13]: 9 (64.3) | Participants with any TEAE, events Related to ensitrelvir [1, 13]: 11 | Skin and subcutaneous tissue disorders, Events [1, 13]: 1 | Skin and subcutaneous tissue disorders, N (%) [1, 13]: 1 (7.1) | Skin and subcutaneous tissue disorders, events Related to ensitrelvir [1, 13]: 1 | Atrioventricular block, N (%) [1, 14]: 1 | Blood triglycerides increased, N (%) [1, 14]: 4 | Dizziness, N (%) [1, 14]: 1 | Headache, N (%) [1, 14]: 1 | Papule, N (%) [1, 14]: 1 | Participants with any TEAE, N (%) [1, 14]: 9 | Atrioventricular block, Events [1, 15]: 0 | Atrioventricular block, N (%) [1, 15]: 0 | Atrioventricular block, events Related to ensitrelvir [1, 15]: 0 | Blood triglycerides increased, Events [1, 15]: 0 | Blood triglycerides increased, N (%) [1, 15]: 0 | Blood triglycerides increased, events Related to ensitrelvir [1, 15]: 0 | Cardiac disorders, Events [1, 15]: 0 | Cardiac disorders, N (%) [1, 15]: 0 | Cardiac disorders, events Related to ensitrelvir [1, 15]: 0 | Dizziness, Events [1, 15]: 0 | Dizziness, N (%) [1, 15]: 0 | Dizziness, events Related to ensitrelvir [1, 15]: 0 | Headache, Events [1, 15]: 0 | Headache, N (%) [1, 15]: 0 | Headache, events Related to ensitrelvir [1, 15]: 0 | High-density lipoprotein decreased, Events [1, 15]: 14 | High-density lipoprotein decreased, N (%) [1, 15]: 14 (100.0) | High-density lipoprotein decreased, events Related to ensitrelvir [1, 15]: 14 | Investigations, Events [1, 15]: 14 | Investigations, N (%) [1, 15]: 14 (100.0) | Investigations, events Related to ensitrelvir [1, 15]: 14 | Nervous system disorders, Events [1, 15]: 0 | Nervous system disorders, N (%) [1, 15]: 0 | Nervous system disorders, events Related to ensitrelvir [1, 15]: 0 | Papule, Events [1, 15]: 0 | Papule, N (%) [1, 15]: 0 | Papule, events Related to ensitrelvir [1, 15]: 0 | Participants with any TEAE, Events [1, 15]: 14 | Participants with any TEAE, N (%) [1, 15]: 14 (100.0) | Participants with any TEAE, events Related to ensitrelvir [1, 15]: 14 | Skin and subcutaneous tissue disorders, Events [1, 15]: 0 | Skin and subcutaneous tissue disorders, N (%) [1, 15]: 0 | Skin and subcutaneous tissue disorders, events Related to ensitrelvir [1, 15]: 0 | Participants with any TEAE, N (%) ([1]; Ensitrelvir 750/250 mg + prednisolone, N = 14, listed as ensitrelvir): 14 | serious TEAEs ([1]; all cohorts): no serious TEAEs | tolerability ([1]; multiple-dose ensitrelvir with CYP3A substrates): well tolerated | reversible inhibitory effect on CYP3A4 (CYP3A [5]): no reversible inhibitory effect | time-dependent inhibition of CYP3A (CYP3A [5]): time-dependent NADPH-mediated inhibition | t1/2,z [6]: 42.2 to 48.1 h

C[C@]12C=CC(=O)C=C1CC[C@@H]1[C@@H]2[C@@H](O)C[C@@]2(C)[C@H]1CC[C@]2(O)C(=O)CO [Prednisolone]
AUC0–inf GLS mean ratio (90% CI) (CYP3A [7]; [16]): 1.1243 (1.0973–1.1521) | AUC0–last GLS mean ratio (90% CI) (CYP3A [7]; [16]): 1.1142 (1.0842–1.1451) | Cmax GLS mean ratio (90% CI) (CYP3A [7]; [16]): 1.0953 (0.9865–1.2160) | MRT GLS mean ratio (90% CI) (CYP3A [7]; [16]): 1.0569 (1.0095–1.1065) | t1/2,z GLS mean ratio (90% CI) (CYP3A [7]; [16]): 1.0660 (1.0349–1.0980) | λz GLS mean ratio (90% CI) (CYP3A [7]; [16]): 0.9381 (0.9107–0.9663) | AUC0–inf GLS mean ratio (90% CI) (CYP3A [7]; [17]): 1.0396 (1.0146–1.0653) | AUC0–last GLS mean ratio (90% CI) (CYP3A [7]; [17]): 1.0267 (0.9990–1.0552) | Cmax GLS mean ratio (90% CI) (CYP3A [7]; [17]): 0.9927 (0.8941–1.1021) | MRT GLS mean ratio (90% CI) (CYP3A [7]; [17]): 1.0419 (0.9952–1.0908) | t1/2,z GLS mean ratio (90% CI) (CYP3A [7]; [17]): 1.0474 (1.0169–1.0789) | λz GLS mean ratio (90% CI) (CYP3A [7]; [17]): 0.9547 (0.9269–0.9834) | AUC0–inf GLS mean ratio (90% CI) (CYP3A [7]; [18]): 1.2476 (1.2176–1.2784) | AUC0–last GLS mean ratio (90% CI) (CYP3A [7]; [18]): 1.2408 (1.2073–1.2752) | Cmax GLS mean ratio (90% CI) (CYP3A [7]; [18]): 1.1141 (1.0035–1.2369) | MRT GLS mean ratio (90% CI) (CYP3A [7]; [18]): 1.1065 (1.0569–1.1584) | t1/2,z GLS mean ratio (90% CI) (CYP3A [7]; [18]): 1.1160 (1.0835–1.1496) | λz GLS mean ratio (90% CI) (CYP3A [7]; [18]): 0.8960 (0.8699–0.9230) | AUC of prednisolone increase (CYP3A [8]): 1.24 fold | AUC(0-inf) (CYP3A [9]; AUC0–inf GLS mean, prednisolone 10 mg alone, Day -2): 1.09 µg·h/mL | AUC(0-t) (CYP3A [9]; AUC0–last GLS mean, prednisolone 10 mg alone, Day -2): 1.04 µg·h/mL | Cmax (CYP3A [9]; Cmax GLS mean, prednisolone 10 mg alone, Day -2): 0.243 µg/mL | MRT (CYP3A [9]; MRT GLS mean, prednisolone 10 mg alone, Day -2): 4.26 h | half-life (CYP3A [9]; prednisolone 10 mg alone, Day -2): 2.55 h | half-life (CYP3A [9]; prednisolone 10 mg, 5th day after the last ensitrelvir dose, Day 9): 2.71 h | half-life (CYP3A [9]; prednisolone 10 mg, 10th day after the last ensitrelvir dose, Day 14): 2.67 h | k el (CYP3A [9]; λz GLS mean, prednisolone 10 mg alone, Day -2): 7.56e-05 s⁻¹
